pIC50: −log10 of the molar value.

Sequence of CSF-1R (P07333 20-972): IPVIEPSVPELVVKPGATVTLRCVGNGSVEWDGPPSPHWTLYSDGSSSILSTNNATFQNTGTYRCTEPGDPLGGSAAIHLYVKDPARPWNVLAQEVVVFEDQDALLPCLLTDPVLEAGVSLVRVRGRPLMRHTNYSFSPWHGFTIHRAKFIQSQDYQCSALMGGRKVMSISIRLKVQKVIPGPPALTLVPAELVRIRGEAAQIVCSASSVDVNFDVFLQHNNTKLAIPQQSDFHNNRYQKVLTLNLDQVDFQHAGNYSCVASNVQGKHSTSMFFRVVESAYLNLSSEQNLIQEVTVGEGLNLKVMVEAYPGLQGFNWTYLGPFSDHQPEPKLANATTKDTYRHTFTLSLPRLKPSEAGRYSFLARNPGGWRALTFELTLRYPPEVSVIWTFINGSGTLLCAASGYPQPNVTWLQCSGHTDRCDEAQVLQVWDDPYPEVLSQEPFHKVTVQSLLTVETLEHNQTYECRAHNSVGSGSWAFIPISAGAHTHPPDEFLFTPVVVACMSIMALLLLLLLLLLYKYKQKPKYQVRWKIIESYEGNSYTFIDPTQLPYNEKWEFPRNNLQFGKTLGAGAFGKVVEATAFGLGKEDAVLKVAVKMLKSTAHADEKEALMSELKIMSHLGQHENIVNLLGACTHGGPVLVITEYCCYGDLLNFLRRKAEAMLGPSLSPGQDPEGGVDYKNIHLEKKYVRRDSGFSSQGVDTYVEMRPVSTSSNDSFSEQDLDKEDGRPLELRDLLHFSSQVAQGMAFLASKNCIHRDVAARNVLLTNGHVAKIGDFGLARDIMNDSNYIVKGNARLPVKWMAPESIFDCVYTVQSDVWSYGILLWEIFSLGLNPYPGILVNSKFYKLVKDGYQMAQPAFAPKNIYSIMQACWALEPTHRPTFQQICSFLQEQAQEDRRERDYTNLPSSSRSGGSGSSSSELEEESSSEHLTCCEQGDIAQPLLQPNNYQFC

The target in the assay is CSF-1R (Homo sapiens, UniProt P07333). Nature of the assay: Peptide (non-phosphorylated) assay, fluorescence polarization competition immunoassay. The class given is biochemical. To be noted: 0.7 nM CSF-1R, 308 μM SYEGNSYTFIDPTQ peptide, 1 mM ATP, 80 min; mean of at least three determinations; read-out: c-fms Peptide IC50. In outline:
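Read-out is fluorescence polarization: after EDTA quench, anti-phosphotyrosine antibody plus PTK green tracer compete with the phosphorylated peptide for 30 min. The CSF-1R reaction itself ran 80 min at room temperature after ATP addition. DMSO (4%) wells served as controls, positive controls pre-treated with EDTA.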
As to `O=C(NCCO)c1cn(-c2ccc3c(c2)CCC3)c2nc(Nc3cccc(N4CCNCC4)c3)ncc2c1=O` [Cpd 66, 8-indan-5-yl-5-oxo-2-(3-piperazin-1-yl-phenylamino)-5,8-dihydro-pyrido[2,3-d]pyrimidine-6-carboxylic acid (2-hydroxy-ethyl)-amide], the pIC50 was 8.60. To `NC(=O)c1cn(-c2ccc3c(c2)CCC3)c2nc(Nc3cccc(C(=O)N4CCOCC4)c3)ncc2c1=O` [Cpd 120, 8-indan-5-yl-2-[3-(morpholine-4-carbonyl)-phenylamino]-5-oxo-5,8-dihydro-pyrido[2,3-d]pyrimidine-6-carboxylic acid amide] belongs 7.77. To `CCN1CCC(Oc2ccc(Nc3ncc4c(=O)c(C(=O)NOC)cn(-c5ccc6c(c5)CCC6)c4n3)cc2)CC1` [Cpd 312, 2-[4-(1-ethyl-piperidin-4-yloxy)-phenylamino]-8-indan-5-yl-5-oxo-5,8-dihydro-pyrido[2,3-d]pyrimidine-6-carboxylic acid methoxy-amide] belongs 9.70; to `CONC(=O)c1cn(-c2ccc3c(c2)CCC3)c2nc(Nc3ccc(CCN4CCC(O)CC4)cc3)ncc2c1=O` [Cpd 238, 2-{4-[2-(4-hydroxy-piperidin-1-yl)-ethyl]-phenylamino}-8-indan-5-yl-5-oxo-5,8-dihydro-pyrido[2,3-d]pyrimidine-6-carboxylic acid methoxy-amide], 9.19; to `CONC(=O)c1cn(-c2ccc3c(c2)CCC3)c2nc(Nc3ccc(C4CCN(CCC(=O)O)CC4)cc3)ncc2c1=O` [Cpd 84, 3-{4-[4-(8-indan-5-yl-6-methoxycarbamoyl-5-oxo-5,8-dihydro-pyrido[2,3-d]pyrimidin-2-ylamino)-phenyl]-piperidin-1-yl}-propionic acid], 8.70.

For the compound `CONC(=O)c1cn(-c2ccc3c(c2)CCC3)c2nc(Nc3ccc(CCN4CCN(CC(=O)O)CC4)cc3)ncc2c1=O` [Cpd 147, (4-{2-[4-(8-indan-5-yl-6-methoxycarbamoyl-5-oxo-5,8-dihydro-pyrido[2,3-d]pyrimidin-2-ylamino)-phenyl]-ethyl}-piperazin-1-yl)-acetic acid], the pIC50 is 9.03.

For `CONC(=O)c1cn(C2CCCCC2)c2nc(Nc3ccc(N4CCCC4)cc3)ncc2c1=O` [Cpd 10, 8-cyclohexyl-5-oxo-2-(4-pyrrolidin-1-yl-phenylamino)-5,8-dihydro-pyrido[2,3-d]pyrimidine-6-carboxylic acid methoxy-amide], the pIC50 was 8.68. As to `CONC(=O)c1cn(-c2ccc3c(c2)CCC3)c2nc(Nc3ccc4[nH]cnc4c3)ncc2c1=O` [Cpd 302, 2-(1H-benzoimidazol-5-ylamino)-8-indan-5-yl-5-oxo-5,8-dihydro-pyrido[2,3-d]pyrimidine-6-carboxylic acid methoxy-amide], the pIC50 was 6.50.

With `CONC(=O)c1cn(-c2ccc3c(c2)CCC3)c2nc(Nc3ccc(CCN4CCN(C)C(=O)C4)cc3)ncc2c1=O` [Cpd 220, 8-indan-5-yl-2-{4-[2-(4-methyl-3-oxo-piperazin-1-yl)-ethyl]-phenylamino}-5-oxo-5,8-dihydro-pyrido[2,3-d]pyrimidine-6-carboxylic acid methoxy-amide], the pIC50 is 9.12. For `CCc1ccc(-n2cc(C(=O)NOC(C)C)c(=O)c3cnc(Nc4ccc(C5CCN(C(C)=O)CC5)cc4)nc32)cc1` [Cpd 59, 2-[4-(1-acetyl-piperidin-4-yl)-phenylamino]-8-(4-ethyl-phenyl)-5-oxo-5,8-dihydro-pyrido[2,3-d]pyrimidine-6-carboxylic acid isopropoxy-amide], the pIC50 was 8.35. Then `CCONC(=O)c1cn(-c2ccc(CC)cc2)c2nc(Nc3ccc(CCN4CCN(C)CC4)cc3)ncc2c1=O` [Cpd 57, 8-(4-ethyl-phenyl)-2-{4-[2-(4-methyl-piperazin-1-yl)-ethyl]-phenylamino}-5-oxo-5,8-dihydro-pyrido[2,3-d]pyrimidine-6-carboxylic acid ethoxy-amide], with 9.22; and `CONC(=O)c1cn(-c2ccc3c(c2)CCC3)c2nc(Nc3ccc(C4C[C@@]5(C)O[C@@](C)(C4)[C@H]4OC(C)(C)O[C@H]45)cc3)ncc2c1=O` (stereo partly drawn) [Cpd 315, 8-indan-5-yl-5-oxo-2-[4-(2aR,1R,7S,6aS)-(1,4,4,7-tetramethyl-3,5,11-trioxa-tricyclo[5.3.1.0^2,6]undec-9-yl)-phenylamino]-5,8-dihydro-pyrido[2,3-d]pyrimidine-6-carboxylic acid methoxy-amide], with 9.30.

Regarding `CCc1ccc(-n2cc(C(=O)NOC)c(=O)c3cnc(Nc4ccc(OCCOC)c(OCCOC)c4)nc32)cc1` [Cpd 308, 2-[3,4-bis-(2-methoxy-ethoxy)-phenylamino]-8-(4-ethyl-phenyl)-5-oxo-5,8-dihydro-pyrido[2,3-d]pyrimidine-6-carboxylic acid methoxy-amide], the pIC50 is 9.05.

As for `NC(=O)c1cn(-c2ccc3c(c2)CCC3)c2nc(Nc3cccc(N4CCCC4)c3)ncc2c1=O` [Cpd 125, 8-indan-5-yl-5-oxo-2-(3-pyrrolidin-1-yl-phenylamino)-5,8-dihydro-pyrido[2,3-d]pyrimidine-6-carboxylic acid amide], the pIC50 was 8.24. To `CCn1cnc2cc(Nc3ncc4c(=O)c(C(=O)NOC)cn(-c5ccc6c(c5)CCC6)c4n3)ccc21` [Cpd 301, 2-(1-ethyl-1H-benzoimidazol-5-ylamino)-8-indan-5-yl-5-oxo-5,8-dihydro-pyrido[2,3-d]pyrimidine-6-carboxylic acid methoxy-amide] belongs 9.05; to `CONC(=O)c1cn(-c2ccc3c(c2)CCC3)c2nc(Nc3ccc(CCN4CCC5(CC4)OCCCO5)cc3)ncc2c1=O` [Cpd 73, 2-{4-[2-(1,5-dioxa-9-aza-spiro[5.5]undec-9-yl)-ethyl]-phenylamino}-8-indan-5-yl-5-oxo-5,8-dihydro-pyrido[2,3-d]pyrimidine-6-carboxylic acid methoxy-amide], 9.08. To `CCONC(=O)c1cn(-c2ccc(CC)cc2)c2nc(Nc3ccc(C4CCN(CC)CC4)cc3)ncc2c1=O` [Cpd 181, 8-(4-ethyl-phenyl)-2-[4-(1-ethyl-piperidin-4-yl)-phenylamino]-5-oxo-5,8-dihydro-pyrido[2,3-d]pyrimidine-6-carboxylic acid ethoxy-amide] belongs 9.70; to `CONC(=O)c1cn(-c2ccc3c(c2)CCC3)c2nc(Nc3cccc(CCN4CCCC4)c3)ncc2c1=O` [Cpd 194, 8-indan-5-yl-5-oxo-2-[3-(2-pyrrolidin-1-yl-ethyl)-phenylamino]-5,8-dihydro-pyrido[2,3-d]pyrimidine-6-carboxylic acid methoxy-amide], 9.19.

Take `CONC(=O)c1cn(-c2ccc3c(c2)CCC3)c2nc(Nc3ccc(CCN(CCO)CCO)cc3)ncc2c1=O` [Cpd 100, 2-(4-{2-[bis-(2-hydroxy-ethyl)-amino]-ethyl}-phenylamino)-8-indan-5-yl-5-oxo-5,8-dihydro-pyrido[2,3-d]pyrimidine-6-carboxylic acid methoxy-amide]: the pIC50 was 9.19. To `O=C(NO)c1cn(C2CCCCC2)c2nc(Nc3ccc(CCN4CCCC4)cc3)ncc2c1=O` [Cpd 17, 8-cyclohexyl-5-oxo-2-[4-(2-pyrrolidin-1-yl-ethyl)-phenylamino]-5,8-dihydro-pyrido[2,3-d]pyrimidine-6-carboxylic acid hydroxyamide] belongs 9.03.

On to `CCc1ccc(-n2cc(C(=O)NOC)c(=O)c3cnc(Nc4ccc(OC5CCN(CC(F)(F)F)CC5)cc4)nc32)cc1` [Cpd 318, 8-(4-ethyl-phenyl)-5-oxo-2-{4-[1-(2,2,2-trifluoro-ethyl)-piperidin-4-yloxy]-phenylamino}-5,8-dihydro-pyrido[2,3-d]pyrimidine-6-carboxylic acid methoxy-amide], for which the pIC50 is 8.28. To `CCc1ccc(-n2cc(C(=O)NOC)c(=O)c3cnc(Nc4ccc(NCCS(C)(=O)=O)cc4)nc32)cc1` [Cpd 217, 8-(4-ethyl-phenyl)-2-[4-(2-methanesulfonyl-ethylamino)-phenylamino]-5-oxo-5,8-dihydro-pyrido[2,3-d]pyrimidine-6-carboxylic acid methoxy-amide] belongs 9.21; to `CCc1ccc(-n2cc(C(=O)NOC)c(=O)c3cnc(Nc4cccc(N(C)C)c4)nc32)cc1` [Cpd 319, 2-(3-dimethylamino-phenylamino)-8-(4-ethyl-phenyl)-5-oxo-5,8-dihydro-pyrido[2,3-d]pyrimidine-6-carboxylic acid methoxy-amide], 8.77.

Consider `CONC(=O)c1cn(-c2ccc3c(c2)CCC3)c2nc(Nc3ccc(CCNC4C5CC6CC(C5)CC4C6)cc3)ncc2c1=O` (stereo not drawn) [Cpd 107, 2-{4-[2-(adamantan-2-ylamino)-ethyl]-phenylamino}-8-indan-5-yl-5-oxo-5,8-dihydro-pyrido[2,3-d]pyrimidine-6-carboxylic acid methoxy-amide], for which the pIC50 is 8.82. To `CCc1ccc(-n2cc(C(=O)NOC)c(=O)c3cnc(Nc4ccc5c(c4)CCN5S(C)(=O)=O)nc32)cc1` [Cpd 280, 8-(4-ethyl-phenyl)-2-(1-methanesulfonyl-2,3-dihydro-1H-indol-5-ylamino)-5-oxo-5,8-dihydro-pyrido[2,3-d]pyrimidine-6-carboxylic acid methoxy-amide] belongs 9.40.

Consider `CONC(=O)c1cn(C2CCCC2)c2nc(Nc3ccc(CN4CCCC4=O)cc3)ncc2c1=O` [Cpd 37, 8-cyclopentyl-5-oxo-2-[4-(2-oxo-pyrrolidin-1-ylmethyl)-phenylamino]-5,8-dihydro-pyrido[2,3-d]pyrimidine-6-carboxylic acid methoxy-amide], for which the pIC50 was 8.82.

`CCc1ccc(-n2cc(C(=O)NOC)c(=O)c3cnc(Nc4ccc(OC5CCN(CC)CC5)cc4)nc32)cc1` [Cpd 310, 8-(4-ethyl-phenyl)-2-[4-(1-ethyl-piperidin-4-yloxy)-phenylamino]-5-oxo-5,8-dihydro-pyrido[2,3-d]pyrimidine-6-carboxylic acid methoxy-amide]: the pIC50 is 9.30.
